From patent US11020449B2, “Use of the GK-1 peptide as an antitumoral and/or antimetastatic agent” (UNIVERSIDAD NACIONAL AUTÓNOMA DE MÉXICO, priority 2016, dated 2021)
Where two headings read alike, the source gives them in different places.

Legend:
[1] = tested on: 4T1 cells; settings: day 39, five experiments
From the text: It is known that the metastasis sites in the 4T1 cell-induced breast cancer murine model are lungs, brain, liver, and bone [Aslakson C. J. et al., Cancer Res. 1992, 52(6): 1399-405; Mi Z. et al., J Biol Che. 2004; 279(45): 46659-67]. Therefore, to assess the antimetastatic effect of GK-1, lungs, liver, and brain from mice in G1 and G2 groups in the Example of Embodiment 3 were recovered and fixed with a 10% formaldehyde solution to macroscopically identify any metastatic focus on these organs.

[2] = tested on: 4T1 cells; settings: superficial zone, day 39
Description: A histological analysis was performed on primary tumors at day 39 post-implantation, to determine the percentage of zones with tissue death in mice from the Example of Embodiment 3. All tumors were manually sectioned and fixed in a 10% formaldehyde solution overnight at 4° C. Then, samples were included in paraffin and processed to obtain 4-μm slices; slices were stained with hematoxylin and eosin (H&E). The upper, middle, and deep tumor sections were analyzed through an Olympus B×50 microscope equipped with a digital camera and using the Infinity Analyze software (v6.3.0).

[3] = tested on: 4T1 mammary carcinoma murine model
Description: Lungs, liver, spleen, brain, and primary tumor were dissected from mice in the groups G1 and G2 of the Example of Embodiment 3, to determine the soluble factors present in the tumor microenvironment and in metastatic-associated organs; in order to obtained a protein extract, 5 mg of each tissue were weighed and placed in 300 μL of lysis buffer with protease inhibitors, then were homogenized. Finally, homogenates were centrifuged for 20 min at 13 000 rpm at 4° C., collecting the supernatants (protein extract). Additionally, serum was isolated from blood samples obtained from all mice. Serum and protein extract samples were processed through the Magpix Luminex system (xPonent software) to determine the concentration of cytokines, chemokines, and growth factors.
Data in Tables 2, 3, and 4 correspond to spleen, lung, and brain soluble factor concentrations expressed in pg/mg of protein. A random sample of 6 mice was taken from 5 independent experiments. * P<0.05.

[4] = tested on: 4T1 cells; assay: Survival rate in mice with 4T1 breast cancer; assay type: in vivo, BALB/cAnN mice; settings: log-rank test
Description: As used in the following Examples of Embodiment, GK-1 was synthesized under good manufacturing practices by USV, LTD, with a purity higher than 95%. The peptide was intravenously administered to mice at a dose of 0.5 mg/kg.
Four to six weeks-old female and male BALB/cAnN mice were used, with a weight range of 17-23 g for females and 20-27 g for males. All mice were maintained in pathogen-free conditions, as required by the Mexican Official Regulation NOM-062-ZOO-1999.
J. et al., Cancer Res, 1992. […] 279(45):46659-67]. […] The administration was repeated weekly at different times.
To determine the survival rate in mice with breast cancer, 1×10^3 4T1 cells were implanted to 40 BALB/cAnN mice as described in the Example of Embodiment 1; 10 males and 10 females were included in each group (G1 and G2). The administration schedule described in the Example of Embodiment 1 was repeated weekly after a solid tumor development, and for 62 days after cell implant.

[5] = tested on: B16-F10 cells; assay: B16-F10 melanoma model: survival rate and lung tumor foci (four groups); assay type: in vivo, C57BL/6 mice; settings: for survival rate: i.v. weekly, 32 days after implantation
Description: The B16 melanoma model is a lung metastasis model widely used for therapy evaluation. While the term “lung metastasis” is used to characterize this type of model, technically each lung nodule is a primary tumor.
Once the tumor is established (16 days after B16-F10 cells were implanted), mice were separated into four groups: One group was administered with a 0.10 μg/μL GK-1 solution in DMSO (0.05%); another group was administered with 0.10 μg/μL GK-1 solution in ISS; a third group received 100 μL of DMSO (0.05%); and a fourth group was administered with 100 μL of ISS; treatments were applied intravenously in all cases. Treatments were repeated weekly after a palpable tumor appeared and for 32 days after cell implantation.
In order to establish the antitumor effect of GK-1, lungs were dissected from mice in all experimental groups at the day 32 post-implantation, and were fixed in a 10% formaldehyde solution to macroscopically determine the number of tumor foci developed.

[6] = tested on: dendritic cells (DCs) loaded with the MAGE antigen; settings: immunotherapy against murine melanoma; cited from earlier work
[7] = tested on: T cell, macrophage, and dendritic cells; settings: in vitro; cited from earlier work
[8] = tested on: melanoma; settings: mouse melanoma model; cited from earlier work

G-Y-Y-Y-P-S-D-P-N-T-F-Y-A-P-P-Y-S-A (GYYYPSDPNTFYAPPYSA; tapeworm) [GK-1, 18-aminoacid peptide identified and cloned from the KETc7 protein of Taenia crassiceps cysticerci]
proportion of mice with lung metastatic foci within the 0-20 range [1]: 67% | area of necrotic-apoptotic cells in primary tumor [2]: increase in the area of necrotic-apoptotic cells | CCL2 concentration ([3]; Brain): 3.44E+00 pg/mg of protein | CCL3 concentration ([3]; Brain): 1.40E+01 pg/mg of protein | CXCL9 concentration ([3]; Brain): 1.44E+02 pg/mg of protein | GM-CSF concentration ([3]; Brain): 2.53E+01 pg/mg of protein | IL-1α concentration ([3]; Brain): 1.44E+01 pg/mg of protein | IL-2 concentration ([3]; Brain): 6.02E+01 pg/mg of protein | IL-4 concentration ([3]; Brain): 1.36E+02 pg/mg of protein | IL-5 concentration ([3]; Brain): 1.18E+02 pg/mg of protein | IL-12 concentration ([3]; Brain): 5.29E+00 pg/mg of protein | IL-17 concentration ([3]; Brain): 8.06E+01 pg/mg of protein | TNF-α concentration ([3]; Brain): 1.26E+01 pg/mg of protein | bFGF concentration ([3]; Brain): 1.16E+04 pg/mg of protein | CCL2 concentration ([3]; Lung): 4.71E+01 pg/mg of protein | CCL3 concentration ([3]; Lung): 5.36E+01 pg/mg of protein | CXCL9 concentration ([3]; Lung): 3.88E+03 pg/mg of protein | GM-CSF concentration ([3]; Lung): 4.06E+01 pg/mg of protein | IL-1α concentration ([3]; Lung): 1.50E+02 pg/mg of protein | IL-2 concentration ([3]; Lung): 6.28E+01 pg/mg of protein | IL-4 concentration ([3]; Lung): 1.49E+02 pg/mg of protein | IL-5 concentration ([3]; Lung): 2.06E+02 pg/mg of protein | IL-12 concentration ([3]; Lung): 3.83E+00 pg/mg of protein | IL-17 concentration ([3]; Lung): 6.22E+00 pg/mg of protein | TNF-α concentration ([3]; Lung): 3.21E+01 pg/mg of protein | bFGF concentration ([3]; Lung): 3.61E+03 pg/mg of protein | CCL2 concentration ([3]; Spleen): 1.19E+01 ± 4.41E+00 pg/mg of protein | CCL3 concentration ([3]; Spleen): 4.99E+01 ± 1.51E+01 pg/mg of protein | CXCL9 concentration ([3]; Spleen): 2.31E+04 ± 1.36E+04 pg/mg of protein | GM-CSF concentration ([3]; Spleen): 3.79E+01 ± 1.60E+01 pg/mg of protein | IL-1α concentration ([3]; Spleen): 6.28E+02 ± 2.42E+02 pg/mg of protein | IL-2 concentration ([3]; Spleen): 6.65E+01 ± 1.05E+01 pg/mg of protein | IL-4 concentration ([3]; Spleen): 7.03E+01 ± 9.56E+01 pg/mg of protein | IL-5 concentration ([3]; Spleen): 1.65E+02 ± 1.00E+02 pg/mg of protein | IL-12 concentration ([3]; Spleen): 8.06E+01 ± 3.61E+01 pg/mg of protein | IL-17 concentration ([3]; Spleen): 2.98E+00 ± 3.01E+00 pg/mg of protein | TNF-α concentration ([3]; Spleen): 1.00E+02 ± 2.46E+01 pg/mg of protein | bFGF concentration ([3]; Spleen): 2.30E+04 ± 3.54E+03 pg/mg of protein | cytokine profile in serum or liver samples versus G2 ([3]; serum, liver): no differences were found | survival with respect to saline-treated mice (Kaplan-Meyer) [4]: significantly increased survival | survival rate ([5]; GK-1 dissolved in DMSO (0.05%)): 25% | survival rate ([5]; GK-1 dissolved in ISS): 57.14% | number of tumor foci developed in lungs versus other treatments ([5]; day 32, GK-1 in DMSO or ISS versus vehicles): no statistically significant differences | activation of MAGE-loaded DCs [6]: increase in the activation of these DCs | immune cell activation (CD80/86, MHC-II expression; IFN-γ, TNF-α, CCL2 secretion) [7]: promoting T cell, macrophage, and dendritic cells activation | mean survival [8]: increased the mean survival | primary tumor necrosis [8]: increased primary tumor necrosis | tumor growth rate [8]: delayed tumor growth rate
